Laboratory results taken from PMC3791449, “Mechanism of amyloid β−protein dimerization determined using single−molecule AFM force spectroscopy” (Scientific Reports, 2013).
“Also recorded” adds a separate entry of the source.

Experiments:
[1] = test system: misfolded Aβ dimers; test: Contour length analysis of interacting segments within Aβ dimers; format: binding, human; details: contour length profiles, Fig. 5
Text: We used the contour length measurements to identify segments of the peptides involved in dimer formation. The measured contour length is comprised of the length of the flexible tethers used for peptide immobilization and the length of the segment of the peptide from the anchoring point to the rupture position. The latter, according to the schematic in Fig. 1, was obtained by subtracting the lengths of all linkers from the measured contour lengths.
Probing interactions of Aβ peptides within a dimer by SMFS provides a pattern of peptide interactions within the dimers. According to the immobilization procedure, the peptide is covalently bound at its N−terminal cysteine. The experimentally measured contour length consists of two major components, the lengths of the flexible tethers used for peptide immobilization and the length of the peptide segment between the N−terminus and the segment of the peptide involved in interpeptide interactions. Therefore, the position of the peak on the force−distance curve is defined by the peptide length between the N−terminus and the interacting segment. […] The closer the interacting segment is to the N−terminus, the shorter the contour length will be when measured by AFM. […] The contour length of PEG 3400 was estimated to be 22.0 ± 0.9 nm[28]. Lengths of both aminopropyl silatrane (APS) and MAS were ~ 2.5 nm[13]. Therefore, the total length of all linkers was 24.5 ± 0.9 nm. In addition, the distance between N−termini of two peptides was estimated to be 1.0 nm.
All cysteinyl−Aβ peptides were synthesized using 9−fluorenylmethoxycarbonyl (FMOC) chemistry and purified by reverse phase high performance liquid chromatography (RP−HPLC). The identity and purity (usually > 97%) of the peptides were confirmed by amino acid analysis followed by mass spectrometry and RP−HPLC. Functionalization of AFM tips and mica substrates were prepared according to previously published procedures. Briefly, 20 nM Aβ monomers were immobilized on mica functionalized with aminopropyl silatrane (APS) via PEG 3400 tethers and on AFM tips through maleimide silatrane (MAS). For DFS study, the tip retraction speeds ranged from 100 nm/s to 4000 nm/s. The dwell time was set at 0.3 s when retraction speed reached 1000 nm/s and above. Force curves with rupture event were subject to WLC analysis, as shown below. [drawing 1] Rupture force distributions were fitted with a probability density function: [drawing 2] Dynamic force spectra were fitted with Bell−Evans model[21]: [drawing 3] […] Positions of interacting segments of Aβ monomers within dimers were estimated by subtracting from the measured contour lengths the lengths of all linkers and the distance between N−termini of monomers (see Fig. 1a). […]

[2] = test system: misfolded Aβ dimers; test: Single-molecule AFM force spectroscopy: rupture force of Aβ dimers; format: binding, human
Description: The cysteinyl−peptides were covalently immobilized on the tip and the surface via flexible tethers terminated with maleimide groups. […] Peptide aggregation was minimized by using a very low peptide concentration (20 nM) during the coupling reaction with the functionalized mica surface and the tips. Probing was performed by multiple approach−retraction cycles over various spots of the mica surface.
Figures 1−b1 and 1−b2 show typical force curves for non−specific and specific interactions, respectively. Specific rupture events were characterized by the appearance of the event indicated with an arrow in Fig. 1−b2. The rupture peak appears at the distance defined by the extension of the flexible linkers (polyethylene glycol, PEG and maleimide silatrane, MAS) and the segments of the peptides not involved in dimer formation (see Supplementary Methods for specifics). The force−distance curves, as shown in Fig. 1−b2, were analyzed with worm−like chain (WLC) fitting to extract parameters including the rupture force and the contour length. […] The measurements for the [VPV]Aβ40 mutant performed at similar conditions (ionic strength, loading rate, etc.) are shown in Fig. 1d. […] The rupture forces increase with increasing apparent loading rates (Supplementary Fig. S1).
All cysteinyl−Aβ peptides were synthesized using 9−fluorenylmethoxycarbonyl (FMOC) chemistry and purified by reverse phase high performance liquid chromatography (RP−HPLC). The identity and purity (usually > 97%) of the peptides were confirmed by amino acid analysis followed by mass spectrometry and RP−HPLC. Functionalization of AFM tips and mica substrates were prepared according to previously published procedures. Briefly, 20 nM Aβ monomers were immobilized on mica functionalized with aminopropyl silatrane (APS) via PEG 3400 tethers and on AFM tips through maleimide silatrane (MAS). For DFS study, the tip retraction speeds ranged from 100 nm/s to 4000 nm/s. The dwell time was set at 0.3 s when retraction speed reached 1000 nm/s and above. Force curves with rupture event were subject to WLC analysis, as shown below. [drawing 1] Rupture force distributions were fitted with a probability density function: [drawing 2] Dynamic force spectra were fitted with Bell−Evans model[21]: [drawing 3] The energy profiles were reconstructed according to previous papers, using the equation below. [drawing 4] Positions of interacting segments of Aβ monomers within dimers were estimated by subtracting from the measured contour lengths the lengths of all linkers and the distance between N−termini of monomers (see Fig. 1a). The contour length of PEG was estimated with the following equation[28]: [drawing 5] Where Lc(F) is the contour length, Ns is the average number of monomers, Lplanar is the length of monomers with planar conformation, Lhelical is the length of monomers with helical conformation, ΔG(F) is the free energy difference at zero appling force. The Ns is 77 ± 10 for 3400 Da PEG. The Lplanar and Lhelical are 3.58 Å and 2.8 Å, respectively. The ΔG(F) is fixed at 3 kBT. The contour length of PEG was thus estimated to be 22.0 ± 0.9 nm. All error bars represent SEM. Detailed methods can be found in Supplementary Information.
A 50 mM 1−(3−aminopropyl) silatrane (APS) stock solution was prepared by dissolving the APS powder in deionized (DI) water. The 1.67 mM stock solution of maleimide−polyethylene glycol−succinimidyl valerate (MAL−PEG−SVA; 3.4 kDa Laysan Bio Inc, Arab, AL) was prepared in DMSO (Sigma−Aldrich Inc.) and stored at −20°C. The 10 mM Tris (2−carboxyethyl) phosphine (TCEP) hydrochloride (Hampton Research Inc.) and the 2.94 mM solution of maleimide silatrane (MAS) were prepared in DI water and stored at −20°C. A 10 mM stock solution of β−mercaptoethanol was prepared in 10 mM sodium phosphate, pH 7.4 (“phosphate buffer”) and kept at 4°C. Unless otherwise specified, other reagents used in the experiments were of analytical grade from Sigma−Aldrich. […]

[3] = Supplementary Figs. S3b-S5b, similar analysis, loading rate not given
[4] = loading rates of 5000−7000 pN/s, ± SEM, total data 170 (Aβ40), 280 ([VPV]Aβ40)

| Substance | predominant interpeptide interaction pattern in dimer [1] | most probable rupture force [2, 3] | most probable rupture force, increase vs Αβ40 dimers ([2]; [VPV]Αβ40 vs Αβ40 (79.3 vs 63.4 pN), loading rates of 5000−7000 pN/s) | most probable rupture force ([2]; loading rate 6068 pN/s, probability density function fit) | most probable rupture force [2, 4] | most probable rupture force ([2]; loading rates of 5000−7000 pN/s, ± SEM, total data 170 (Aβ40), 280 ([VPV]Aβ40), listed as [VPV]Αβ40) | most probable rupture force ([2]; loading rate 6215 pN/s, probability density function fit) | most probable rupture force ([2]; loading rates of 5000−7000 pN/s, ± SEM, total data 170 (Aβ40), 280 ([VPV]Aβ40), listed as Αβ40) | rupture force alignment in the force versus contour length plot ([2]; scatter plot Fig. 3c, horizontal line, loading rates of 5000−7000 pN/s) |
| --- | --- | --- | --- | --- | --- | --- | --- | --- | --- |
| [VPV]Aβ42: Aβ42 with VPV substitutions (Gly33Val−Val36Pro−Gly38Val); cysteinyl−peptide | interactions within the central segments | 67.9 ± 1.0 pN | – | – | – | – | – | – | – |
| [VPV]Aβ40: Aβ40 mutant with VPV substitutions (Gly33Val−Val36Pro−Gly38Val); cysteinyl−peptide | increased interactions between the central and C−terminal segments | – | 25% | 83.6 pN | 79.3 ± 1.5 pN | 79.3 pN | – | – | – |
| Aβ42: alloform of human amyloid β−protein with two additional C−terminal residues; cysteinyl−peptide | interactions within the C−terminus | 66.2 ± 0.8 pN | – | – | – | – | – | – | – |
| Aβ40: alloform of human amyloid β−protein; cysteinyl−Aβ peptide, Cys residue placed at the N−terminus | primary interactions that occur via the N−termini; also recorded: predominate contribution of N−terminal interactions | – | – | – | 63.4 ± 3.2 pN | – | 57.0 pN | 63.4 pN | ~ 60 pN |
